In patent publication US11890287B2, “Therapeutic compounds and compositions for treating social disorders and substance use disorders” (Kinoxis Therapeutics Pty Ltd, priority 2015, dated 2024):

Experiments:
[1] = Pharmacokinetics after IP and PO administration; type: in vivo, Hooded Wistar rats; conditions: for AUC(0-inf) / AUC(0-t) / Cmax / Tmax: Hooded Wistar, rat, plasma
Method: When given via an intraperitoneal injection (IP), SOC-1 plasma levels show a rapid elevation. This swiftly declines over the first hour before settling into a less hasty decrease in concentration over the proceeding hours. […] The initial increase in plasma levels is less pronounced when SOC-1 is given orally but the decline is far less rapid, with plasma concentration becoming equivalent to IP between 1 and 4 hours. In many ways this is a more favourable profile as, unlike the IP dosing, oral dosing results in levels of SOC-1 that are still high but that are also very stable over many hours, with a half-life of over four hours.

[2] = test system: rats; assay: In vivo toxicity/adverse events; parameters: species or system rat
Method: However, the rats were not ataxic or comatose, they were simply in a relaxed quiescent state. […] Effects on body temperature and other behaviours are not blocked by pre-treatment with the vasopressin V1A receptor antagonist SR49059 (10 mg/kg). […] The data in these two studies was gathered with DataSciences International biotelemetry system.

[3] = test system: rats; assay: Non-social tests of anxiety (elevated plus maze, open field); type: in vivo, rat; conditions: acute dosing or residual long-term effect
[4] = molecular target: T1, 5-HT1A (Homo sapiens, UniProt P08908); assay: PDSP orthosteric binding screen
T1 construct: Psychoactive Drug Screening Program (PDSP)
Description: (§1) Comprehensive screening of affinity for the orthosteric binding sites for numerous receptors from the Psychoactive Drug Screening Program (PDSP) have failed as yet to identify a target, despite the powerful OT-like behavioural effects of the compound evident in vivo and the clear activation of brain OT systems evident from our Fos data.

[5] = molecular target: T2, 5-HT1B (Homo sapiens, UniProt P28222); assay: PDSP orthosteric binding screen
T2 construct: Psychoactive Drug Screening Program (PDSP)
T2 sequence (P28222 whole entry, species assumed): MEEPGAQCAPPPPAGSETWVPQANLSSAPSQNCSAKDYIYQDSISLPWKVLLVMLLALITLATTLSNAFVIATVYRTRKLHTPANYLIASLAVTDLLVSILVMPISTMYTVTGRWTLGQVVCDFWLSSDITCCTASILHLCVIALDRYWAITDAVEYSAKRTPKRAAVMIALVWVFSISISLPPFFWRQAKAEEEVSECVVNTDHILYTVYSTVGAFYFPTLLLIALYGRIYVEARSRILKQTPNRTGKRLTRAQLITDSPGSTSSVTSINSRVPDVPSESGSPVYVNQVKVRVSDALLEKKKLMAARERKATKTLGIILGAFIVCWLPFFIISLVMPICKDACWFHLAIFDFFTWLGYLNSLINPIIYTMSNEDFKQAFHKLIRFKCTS
Description: as §1

[6] = molecular target: T3, 5-HT1D (Homo sapiens, UniProt P28221); assay: PDSP orthosteric binding screen
T3 construct: Psychoactive Drug Screening Program (PDSP)
Description: as §1

[7] = molecular target: T4, 5-HT2A (Homo sapiens, UniProt P28223); assay: PDSP orthosteric binding screen
T4 construct: Psychoactive Drug Screening Program (PDSP)
T4 sequence (P28223 whole entry): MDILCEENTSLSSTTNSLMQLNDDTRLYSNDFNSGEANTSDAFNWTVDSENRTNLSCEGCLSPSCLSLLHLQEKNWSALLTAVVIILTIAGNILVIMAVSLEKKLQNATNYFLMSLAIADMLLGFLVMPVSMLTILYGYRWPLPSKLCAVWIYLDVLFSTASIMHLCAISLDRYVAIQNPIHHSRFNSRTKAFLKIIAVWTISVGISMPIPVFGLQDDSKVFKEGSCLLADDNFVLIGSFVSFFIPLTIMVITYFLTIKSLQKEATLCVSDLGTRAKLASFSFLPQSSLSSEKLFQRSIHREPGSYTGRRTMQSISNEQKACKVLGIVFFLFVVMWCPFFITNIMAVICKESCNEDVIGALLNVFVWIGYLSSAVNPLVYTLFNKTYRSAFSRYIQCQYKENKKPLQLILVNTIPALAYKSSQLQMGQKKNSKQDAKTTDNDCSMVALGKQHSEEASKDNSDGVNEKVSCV
Description: as §1

[8] = molecular target: T5, 5-HT2B (Homo sapiens, UniProt P41595); assay: PDSP orthosteric binding screen
T5 construct: Psychoactive Drug Screening Program (PDSP)
Description: as §1

[9] = molecular target: T6, 5-HT2C (Homo sapiens, UniProt P28335); assay: PDSP orthosteric binding screen
T6 construct: Psychoactive Drug Screening Program (PDSP)
Description: as §1

[10] = molecular target: T7, 5-HT3 (Homo sapiens, UniProt P46098); assay: PDSP orthosteric binding screen
T7 construct: Psychoactive Drug Screening Program (PDSP)
Description: as §1

[11] = molecular target: T8, 5-HT6 (Homo sapiens, UniProt P50406); assay: PDSP orthosteric binding screen
T8 construct: Psychoactive Drug Screening Program (PDSP)
Description: as §1

[12] = molecular target: T9, 5-ht5a (Homo sapiens, UniProt P47898); assay: PDSP orthosteric binding screen
T9 construct: Psychoactive Drug Screening Program (PDSP)
Description: as §1

[13] = molecular target: T10, Alpha1B (Homo sapiens, UniProt P35368); assay: PDSP orthosteric binding screen
T10 construct: Psychoactive Drug Screening Program (PDSP)
Description: as §1

[14] = molecular target: T11, Alpha1D (Homo sapiens, UniProt P25100); assay: PDSP orthosteric binding screen
T11 construct: Psychoactive Drug Screening Program (PDSP)
T11 sequence (P25100 whole entry): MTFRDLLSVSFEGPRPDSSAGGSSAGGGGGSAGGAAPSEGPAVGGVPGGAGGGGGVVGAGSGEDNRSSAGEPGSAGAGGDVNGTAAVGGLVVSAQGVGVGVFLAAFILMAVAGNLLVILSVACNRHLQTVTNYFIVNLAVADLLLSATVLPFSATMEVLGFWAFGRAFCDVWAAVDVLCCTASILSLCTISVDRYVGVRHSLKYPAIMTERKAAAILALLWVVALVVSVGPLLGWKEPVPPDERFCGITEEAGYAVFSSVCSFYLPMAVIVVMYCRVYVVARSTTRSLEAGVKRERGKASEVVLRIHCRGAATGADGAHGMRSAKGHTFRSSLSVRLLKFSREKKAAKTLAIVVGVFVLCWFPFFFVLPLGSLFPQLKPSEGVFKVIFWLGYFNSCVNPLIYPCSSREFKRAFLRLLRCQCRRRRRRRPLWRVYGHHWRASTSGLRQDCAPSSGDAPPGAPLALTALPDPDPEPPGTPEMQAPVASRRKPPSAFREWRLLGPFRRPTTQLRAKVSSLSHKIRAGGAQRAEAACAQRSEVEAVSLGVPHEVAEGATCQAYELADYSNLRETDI
Description: as §1

[15] = molecular target: T12, Alpha2A (Homo sapiens, UniProt P08913); assay: PDSP orthosteric binding screen
T12 construct: Psychoactive Drug Screening Program (PDSP)
Description: as §1

[16] = molecular target: T13, Alpha2C (Homo sapiens, UniProt P18825); assay: PDSP orthosteric binding screen
T13 construct: Psychoactive Drug Screening Program (PDSP)
T13 sequence (P18825 whole entry): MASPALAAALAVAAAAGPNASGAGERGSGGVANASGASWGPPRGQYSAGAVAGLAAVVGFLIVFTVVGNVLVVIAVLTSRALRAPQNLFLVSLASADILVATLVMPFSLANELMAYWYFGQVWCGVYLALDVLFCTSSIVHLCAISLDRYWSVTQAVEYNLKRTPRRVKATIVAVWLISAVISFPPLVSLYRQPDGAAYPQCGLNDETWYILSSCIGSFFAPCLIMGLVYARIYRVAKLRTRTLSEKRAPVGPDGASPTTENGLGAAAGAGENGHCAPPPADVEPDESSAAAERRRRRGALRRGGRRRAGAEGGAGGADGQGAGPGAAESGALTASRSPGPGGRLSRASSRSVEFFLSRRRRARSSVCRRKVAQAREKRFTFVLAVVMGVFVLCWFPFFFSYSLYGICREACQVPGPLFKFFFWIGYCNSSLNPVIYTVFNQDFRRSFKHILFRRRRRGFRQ
Description: as §1

[17] = molecular target: T14, Beta2 (Homo sapiens, UniProt P07550); assay: PDSP orthosteric binding screen
T14 construct: Psychoactive Drug Screening Program (PDSP)
Description: as §1

[18] = molecular target: T15, D1 (Homo sapiens, UniProt P21728); assay: PDSP orthosteric binding screen
T15 construct: Psychoactive Drug Screening Program (PDSP)
Description: as §1

[19] = molecular target: T16, D2 (Homo sapiens, UniProt P14416); assay: PDSP orthosteric binding screen
T16 construct: Psychoactive Drug Screening Program (PDSP)
T16 sequence (P14416 whole entry): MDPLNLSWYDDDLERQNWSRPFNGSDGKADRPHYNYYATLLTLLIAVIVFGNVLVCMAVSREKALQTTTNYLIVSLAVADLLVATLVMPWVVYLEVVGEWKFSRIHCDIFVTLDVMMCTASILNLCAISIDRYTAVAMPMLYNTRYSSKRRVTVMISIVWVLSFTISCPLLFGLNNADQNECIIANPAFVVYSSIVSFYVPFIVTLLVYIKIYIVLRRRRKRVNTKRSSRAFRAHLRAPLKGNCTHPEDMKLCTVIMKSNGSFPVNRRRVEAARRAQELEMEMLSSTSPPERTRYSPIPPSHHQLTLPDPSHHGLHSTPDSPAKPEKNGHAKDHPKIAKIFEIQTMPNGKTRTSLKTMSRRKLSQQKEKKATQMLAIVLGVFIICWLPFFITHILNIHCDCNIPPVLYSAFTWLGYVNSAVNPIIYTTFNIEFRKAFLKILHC
Description: as §1

[20] = molecular target: T17, D3 (Homo sapiens, UniProt P35462); assay: PDSP orthosteric binding screen
T17 construct: Psychoactive Drug Screening Program (PDSP)
Description: as §1

[21] = molecular target: T18, D4 (Homo sapiens, UniProt P21917); assay: PDSP orthosteric binding screen
T18 construct: Psychoactive Drug Screening Program (PDSP)
Description: as §1

[22] = molecular target: T19, D5 (Homo sapiens, UniProt P21918); assay: PDSP orthosteric binding screen
T19 construct: Psychoactive Drug Screening Program (PDSP)
Description: as §1

[23] = molecular target: T20, DAT (Homo sapiens, UniProt Q01959); assay: PDSP orthosteric binding screen
T20 construct: Psychoactive Drug Screening Program (PDSP)
T20 sequence (Q01959 whole entry, species assumed): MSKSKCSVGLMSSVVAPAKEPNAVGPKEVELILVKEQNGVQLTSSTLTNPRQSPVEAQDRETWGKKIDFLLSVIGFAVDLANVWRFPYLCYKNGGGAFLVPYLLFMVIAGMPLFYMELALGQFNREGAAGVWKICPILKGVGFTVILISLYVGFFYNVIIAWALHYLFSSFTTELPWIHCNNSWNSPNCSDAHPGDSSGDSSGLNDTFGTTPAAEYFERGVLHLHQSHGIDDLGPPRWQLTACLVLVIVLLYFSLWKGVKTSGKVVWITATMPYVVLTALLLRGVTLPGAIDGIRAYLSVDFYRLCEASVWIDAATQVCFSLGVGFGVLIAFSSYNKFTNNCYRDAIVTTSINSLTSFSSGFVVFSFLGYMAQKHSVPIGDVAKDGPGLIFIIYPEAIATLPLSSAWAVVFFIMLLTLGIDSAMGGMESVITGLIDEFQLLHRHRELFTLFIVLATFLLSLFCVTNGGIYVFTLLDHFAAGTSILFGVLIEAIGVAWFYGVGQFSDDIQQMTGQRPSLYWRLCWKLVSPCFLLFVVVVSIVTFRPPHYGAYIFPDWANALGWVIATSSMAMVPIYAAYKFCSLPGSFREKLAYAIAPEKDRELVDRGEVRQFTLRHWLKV
Description: as §1

[24] = molecular target: T21, DOR (Homo sapiens, UniProt P41143); assay: PDSP orthosteric binding screen
T21 construct: Psychoactive Drug Screening Program (PDSP)
Description: as §1

[25] = molecular target: T22, H1 (Homo sapiens, UniProt P35367); assay: PDSP orthosteric binding screen
T22 construct: Psychoactive Drug Screening Program (PDSP)
Description: as §1

[26] = molecular target: T23, H2 (Homo sapiens, UniProt P25021); assay: PDSP orthosteric binding screen
T23 construct: Psychoactive Drug Screening Program (PDSP)
T23 sequence (P25021 whole entry): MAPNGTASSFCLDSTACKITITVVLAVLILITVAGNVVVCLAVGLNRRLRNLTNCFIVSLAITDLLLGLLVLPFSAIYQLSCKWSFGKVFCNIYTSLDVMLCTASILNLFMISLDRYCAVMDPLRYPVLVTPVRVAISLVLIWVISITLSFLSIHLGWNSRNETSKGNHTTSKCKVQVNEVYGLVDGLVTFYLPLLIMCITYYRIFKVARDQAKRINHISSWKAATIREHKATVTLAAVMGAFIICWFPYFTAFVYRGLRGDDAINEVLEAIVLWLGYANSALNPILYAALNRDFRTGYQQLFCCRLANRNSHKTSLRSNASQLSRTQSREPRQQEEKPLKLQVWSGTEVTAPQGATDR
Description: as §1

[27] = molecular target: T24, H3 (Homo sapiens, UniProt Q9Y5N1); assay: PDSP orthosteric binding screen
T24 construct: Psychoactive Drug Screening Program (PDSP)
T24 sequence (Q9Y5N1 whole entry): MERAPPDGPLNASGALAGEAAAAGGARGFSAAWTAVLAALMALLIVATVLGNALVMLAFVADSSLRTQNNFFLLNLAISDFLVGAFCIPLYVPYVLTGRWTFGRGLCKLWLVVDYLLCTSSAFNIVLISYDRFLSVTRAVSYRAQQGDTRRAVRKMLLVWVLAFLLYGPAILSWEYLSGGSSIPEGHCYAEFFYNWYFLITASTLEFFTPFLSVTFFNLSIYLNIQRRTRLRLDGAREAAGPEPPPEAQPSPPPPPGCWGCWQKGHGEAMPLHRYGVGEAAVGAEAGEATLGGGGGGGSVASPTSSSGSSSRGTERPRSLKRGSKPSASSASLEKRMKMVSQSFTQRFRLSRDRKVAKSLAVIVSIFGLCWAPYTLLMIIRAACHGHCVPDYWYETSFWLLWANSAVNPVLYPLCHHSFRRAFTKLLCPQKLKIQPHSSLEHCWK
Description: as §1

[28] = molecular target: T25, KOR (Homo sapiens, UniProt P41145); assay: PDSP orthosteric binding screen
T25 construct: Psychoactive Drug Screening Program (PDSP)
Description: as §1

[29] = molecular target: T26, M1 (Homo sapiens, UniProt P11229); assay: PDSP orthosteric binding screen
T26 construct: Psychoactive Drug Screening Program (PDSP)
T26 sequence (P11229 whole entry): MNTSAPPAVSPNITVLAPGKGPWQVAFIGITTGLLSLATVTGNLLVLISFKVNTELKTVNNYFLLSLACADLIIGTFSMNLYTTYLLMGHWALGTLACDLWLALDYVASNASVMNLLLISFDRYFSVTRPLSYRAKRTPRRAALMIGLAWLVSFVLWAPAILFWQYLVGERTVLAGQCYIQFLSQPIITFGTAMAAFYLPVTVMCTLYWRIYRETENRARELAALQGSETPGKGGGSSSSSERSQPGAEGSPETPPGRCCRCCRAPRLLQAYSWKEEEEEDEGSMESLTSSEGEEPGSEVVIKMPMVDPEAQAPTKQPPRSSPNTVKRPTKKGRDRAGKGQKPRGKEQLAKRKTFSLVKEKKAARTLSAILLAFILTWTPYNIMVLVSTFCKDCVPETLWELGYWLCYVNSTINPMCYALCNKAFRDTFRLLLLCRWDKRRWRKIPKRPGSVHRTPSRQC
Description: as §1

[30] = molecular target: T27, M3 (Homo sapiens, UniProt P20309); assay: PDSP orthosteric binding screen
T27 construct: Psychoactive Drug Screening Program (PDSP)
Description: as §1

[31] = molecular target: T28, M4 (Homo sapiens, UniProt P08173); assay: PDSP orthosteric binding screen
T28 construct: Psychoactive Drug Screening Program (PDSP)
Description: as §1

[32] = molecular target: T29, M5 (Homo sapiens, UniProt P08912); assay: PDSP orthosteric binding screen
T29 construct: Psychoactive Drug Screening Program (PDSP)
Description: as §1

[33] = molecular target: T30, MOR (Homo sapiens, UniProt P35372); assay: PDSP orthosteric binding screen
T30 construct: Psychoactive Drug Screening Program (PDSP)
Description: as §1

[34] = molecular target: T31, SERT (Homo sapiens, UniProt P31645); assay: PDSP orthosteric binding screen
T31 construct: Psychoactive Drug Screening Program (PDSP)
T31 sequence (P31645 whole entry, species assumed): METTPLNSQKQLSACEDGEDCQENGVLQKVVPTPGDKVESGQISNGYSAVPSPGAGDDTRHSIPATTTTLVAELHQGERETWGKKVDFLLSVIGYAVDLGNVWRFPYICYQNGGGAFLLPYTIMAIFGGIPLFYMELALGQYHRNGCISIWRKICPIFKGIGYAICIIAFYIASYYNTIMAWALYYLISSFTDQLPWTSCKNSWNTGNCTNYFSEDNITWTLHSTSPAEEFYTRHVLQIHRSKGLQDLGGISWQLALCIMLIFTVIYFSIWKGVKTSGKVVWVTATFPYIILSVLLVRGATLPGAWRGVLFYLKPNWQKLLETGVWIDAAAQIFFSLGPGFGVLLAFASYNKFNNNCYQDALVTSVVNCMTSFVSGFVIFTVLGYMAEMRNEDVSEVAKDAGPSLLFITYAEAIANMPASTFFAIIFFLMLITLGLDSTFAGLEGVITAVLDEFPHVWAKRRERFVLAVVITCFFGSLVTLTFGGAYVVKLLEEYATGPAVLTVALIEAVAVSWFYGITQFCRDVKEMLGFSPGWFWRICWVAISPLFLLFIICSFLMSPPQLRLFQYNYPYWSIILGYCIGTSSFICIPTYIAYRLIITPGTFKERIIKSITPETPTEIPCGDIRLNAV
Description: as §1

[35] = test system: Sigma 2; assay: PDSP orthosteric binding screen
Description: as §1

Cl.Cn1ncc2c1Nc1ccccc1NC2 [SOC-1]
AUC(0-inf) ([1]; ip, 5 mg/kg): 5910 ng·h/mL | AUC(0-t) ([1]; ip, 5 mg/kg): 5520 ng·h/mL | Cmax ([1]; ip, 5 mg/kg): 3840 ng/mL | Tmax ([1]; ip, 5 mg/kg): 3.96 min | AUC(0-inf) ([1]; po, 5 mg/kg): 8490 ng·h/mL | AUC(0-t) ([1]; po, 5 mg/kg): 4060 ng·h/mL | Cmax ([1]; po, 5 mg/kg): 1320 ng/mL | Tmax ([1]; po, 5 mg/kg): 26.1 min | ka ([1]; IP, 5 mg/kg): 71.727 h⁻¹ | ke ([1]; IP, 5 mg/kg): 0.679 h⁻¹ | t1/2ka ([1]; IP, 5 mg/kg): 0.5798 min | t1/2ke ([1]; IP, 5 mg/kg): 61.26 min | ka ([1]; PO, 5 mg/kg): 9.45 h⁻¹ | t1/2ka ([1]; PO, 5 mg/kg): 4.38 min | t1/2ke ([1]; PO, 5 mg/kg): 248.8 min | half-life ([1]; oral dosing): over four | oral bioavailability ([1]; relative to the intraperitoneal route): excellent oral bioavailability | locomotor activity ([2]; 10-20 mg/kg IP): some mild inhibition of locomotor activity | tolerability of repeated dosing (body weight, coat condition) ([2]; repeated dosing): without any apparent adverse effects | effect in non-social tests of anxiety [3]: without effect | affinity for 5-HT1A [4]: no notable affinity | affinity for 5-HT1B [5]: no notable affinity | affinity for 5-HT1D [6]: no notable affinity | affinity for 5-HT2A [7]: no notable affinity | affinity for 5-HT2B [8]: no notable affinity | affinity for 5-HT2C [9]: no notable affinity | affinity for 5-HT3 [10]: no notable affinity | affinity for 5-HT6 [11]: no notable affinity | affinity for 5-ht5a [12]: no notable affinity | affinity for Alpha1B [13]: no notable affinity | affinity for Alpha1D [14]: no notable affinity | affinity for Alpha2A [15]: no notable affinity | affinity for Alpha2C [16]: no notable affinity | affinity for Beta2 [17]: no notable affinity | affinity for D1 [18]: no notable affinity | affinity for D2 [19]: no notable affinity | affinity for D3 [20]: no notable affinity | affinity for D4 [21]: no notable affinity | affinity for D5 [22]: no notable affinity | affinity for DAT [23]: no notable affinity | affinity for DOR [24]: no notable affinity | affinity for H1 [25]: no notable affinity | affinity for H2 [26]: no notable affinity | affinity for H3 [27]: no notable affinity | affinity for KOR [28]: no notable affinity | affinity for M1 [29]: no notable affinity | affinity for M3 [30]: no notable affinity | affinity for M4 [31]: no notable affinity | affinity for M5 [32]: no notable affinity | affinity for MOR [33]: no notable affinity | affinity for SERT [34]: no notable affinity | affinity for Sigma 2 [35]: no notable affinity
